Experimental data reported in US12110289B2, “Heterocyclic compounds, preparation methods and uses thereof” (InventisBio Co., Ltd., priority 2020, dated 2024).

system: Lung cancer cell line NCI-H358 containing KRas G12C mutation; assay: Assay for cell proliferation (Cell-titer Glo, 5 days); type: cell-based, human; details: Homo sapiens, NCI-H358, 120 h, NCI-H358, 5 days, Cell-titer Glo; read-out: IC50 (nM), Inhibition of NCI-H358 Cell Proliferation
Experimental: One hundred fifty microliter (150 μL) of media containing 2000 cells per well were seeded into each well of a 96-well culture plate and left to attach overnight in a 37° C. incubator with 5% CO2. Diluted compounds of 0.75 μL for each well were added by liquid handler at a final concentration of 0.5% DMSO. Cells were treated for 5 days in the incubator. Cell-titer Glo (CTG) kit (Promega) was used to assess cell proliferation. Of note, 120 μL of CTG reagent was added to each well and incubated at RT for 10 minutes.

Work on `C=CC(=O)N1C[C@H](C)N(c2nc(=O)n(-c3c(F)cc4c(ncn4C)c3C3CC3)c3nc(-c4c(N)cccc4F)c(F)cc23)C[C@H]1C` (atropisomer, axis not shown) [Compound 179] yielded an IC50 of 386 nM.

same assay, conditions: NCI-H358, 5 days, Cell-titer Glo; read-out: IC50 (nM), Inhibition of NCI-H358 Cell Proliferation

In order of falling IC50:
1. C=CC(=O)N1CCN(c2nc(=O)n(-c3c(F)cc4c(ncn4C)c3C(C)C)c3nc(-c4c(N)cccc4F)c(F)cc23)[C@@H](C)C1 (single isomer, unassigned) [Compound 143]  1300 nM
2. C=CC(=O)N1C[C@H](C)N(c2nc(=O)n(-c3c(C)cc4c(ncn4C)c3C(C)C)c3nc(-c4c(N)cccc4F)c(F)cc23)C[C@H]1C (single isomer, unassigned) [Compound 153]  172 nM
3. C=CC(=O)N1CCN(c2nc(=O)n(-c3c(C)cc4c(ncn4C)c3C(C)C)c3nc(-c4c(N)cccc4F)c(F)cc23)[C@@H](C)C1 (single isomer, unassigned) [Compound 148]  78.6 nM
4. C=CC(=O)N1C[C@H](C)N(c2nc(=O)n(-c3c(C)cc4c(ncn4C)c3C(C)C)c3nc(-c4ccccc4F)c(Cl)cc23)C[C@H]1C (single isomer, unassigned) [Compound 159]  64.2 nM
5. C=CC(=O)N1CCN(c2nc(=O)n(-c3c(C)cc4c(ncn4C)c3C(C)C)c3nc(-c4c(O)cccc4F)c(F)cc23)[C@@H](C)C1 (single isomer, unassigned) [Compound 155]  60 nM
6. C=CC(=O)N1CCN(c2nc(=O)n(-c3c(C)cc4c(ncn4C)c3C(C)C)c3nc(-c4ccccc4F)c(Cl)cc23)[C@@H](C)C1 (single isomer, unassigned) [Compound 141]  38 nM
7. C=CC(=O)N1C[C@H](C)N(c2nc(=O)n(-c3c(C)cc4c(ncn4C)c3C(C)C)c3nc(-c4c(N)cccc4F)c(Cl)cc23)C[C@H]1C (single isomer, unassigned) [Compound 161]  32.4 nM
8. C=CC(=O)N1CCN(c2nc(=O)n(-c3c(C)cc4c(ncn4C)c3C(C)C)c3nc(-c4c(N)cccc4F)c(Cl)cc23)[C@@H](C)C1 (atropisomer, axis not shown) [Compound 151]  16.2 nM
9. C=CC(=O)N1C[C@H](C)N(c2nc(=O)n(-c3c(C)cc4c(ncn4C)c3C(C)C)c3nc(-c4c(O)cccc4F)c(Cl)cc23)C[C@H]1C (single isomer, unassigned) [Compound 149]  12.8 nM
10. C=CC(=O)N1CCN(c2nc(=O)n(-c3c(C)cc4c(ncn4C)c3C(C)C)c3nc(-c4c(O)cccc4F)c(F)cc23)[C@@H](C)C1 (single isomer, unassigned) [Compound 156]  6.9 nM
11. C=CC(=O)N1CCN(c2nc(=O)n(-c3c(C)cc4c(ncn4C)c3C(C)C)c3nc(-c4c(N)cccc4F)c(F)cc23)[C@@H](C)C1 (single isomer, unassigned) [Compound 147]  2.7 nM
12. C=CC(=O)N1CCN(c2nc(=O)n(-c3c(F)cc4c(ncn4C)c3C(C)C)c3nc(-c4c(N)cccc4F)c(F)cc23)[C@@H](C)C1 (single isomer, unassigned) [Compound 144]  2.5 nM
13. C=CC(=O)N1CCN(c2nc(=O)n(-c3c(C)cc4c(ncn4C)c3C(C)C)c3nc(-c4ccccc4F)c(Cl)cc23)[C@@H](C)C1 (single isomer, unassigned) [Compound 142]  2.2 nM
14. C=CC(=O)N1C[C@H](C)N(c2nc(=O)n(-c3c(C)cc4c(ncn4C)c3C(C)C)c3nc(-c4c(N)cccc4F)c(F)cc23)C[C@H]1C (single isomer, unassigned) [Compound 154]  1.4 nM
15. C=CC(=O)N1C[C@H](C)N(c2nc(=O)n(-c3c(C)cc4c(ncn4C)c3C(C)C)c3nc(-c4ccccc4F)c(Cl)cc23)C[C@H]1C (single isomer, unassigned) [Compound 160]  1.3 nM
16. C=CC(=O)N1C[C@H](C)N(c2nc(=O)n(-c3c(C)cc4c(ncn4C)c3C(C)C)c3nc(-c4c(O)cccc4F)c(Cl)cc23)C[C@H]1C (single isomer, unassigned) [Compound 150]  1.1 nM
17. C=CC(=O)N1C[C@H](C)N(c2nc(=O)n(-c3c(C)cc4c(ncn4C)c3C(C)C)c3nc(-c4c(N)cccc4F)c(Cl)cc23)C[C@H]1C (single isomer, unassigned) [Compound 162]  0.5 nM
